Common to all, as to assay type: cell-based
One experiment concerns the target T1, human TLR7 (Homo sapiens, UniProt Q9NYK1).
T1 construct: host or cells: HEK-Blue cells
T1 sequence (Q9NYK1 27-1049): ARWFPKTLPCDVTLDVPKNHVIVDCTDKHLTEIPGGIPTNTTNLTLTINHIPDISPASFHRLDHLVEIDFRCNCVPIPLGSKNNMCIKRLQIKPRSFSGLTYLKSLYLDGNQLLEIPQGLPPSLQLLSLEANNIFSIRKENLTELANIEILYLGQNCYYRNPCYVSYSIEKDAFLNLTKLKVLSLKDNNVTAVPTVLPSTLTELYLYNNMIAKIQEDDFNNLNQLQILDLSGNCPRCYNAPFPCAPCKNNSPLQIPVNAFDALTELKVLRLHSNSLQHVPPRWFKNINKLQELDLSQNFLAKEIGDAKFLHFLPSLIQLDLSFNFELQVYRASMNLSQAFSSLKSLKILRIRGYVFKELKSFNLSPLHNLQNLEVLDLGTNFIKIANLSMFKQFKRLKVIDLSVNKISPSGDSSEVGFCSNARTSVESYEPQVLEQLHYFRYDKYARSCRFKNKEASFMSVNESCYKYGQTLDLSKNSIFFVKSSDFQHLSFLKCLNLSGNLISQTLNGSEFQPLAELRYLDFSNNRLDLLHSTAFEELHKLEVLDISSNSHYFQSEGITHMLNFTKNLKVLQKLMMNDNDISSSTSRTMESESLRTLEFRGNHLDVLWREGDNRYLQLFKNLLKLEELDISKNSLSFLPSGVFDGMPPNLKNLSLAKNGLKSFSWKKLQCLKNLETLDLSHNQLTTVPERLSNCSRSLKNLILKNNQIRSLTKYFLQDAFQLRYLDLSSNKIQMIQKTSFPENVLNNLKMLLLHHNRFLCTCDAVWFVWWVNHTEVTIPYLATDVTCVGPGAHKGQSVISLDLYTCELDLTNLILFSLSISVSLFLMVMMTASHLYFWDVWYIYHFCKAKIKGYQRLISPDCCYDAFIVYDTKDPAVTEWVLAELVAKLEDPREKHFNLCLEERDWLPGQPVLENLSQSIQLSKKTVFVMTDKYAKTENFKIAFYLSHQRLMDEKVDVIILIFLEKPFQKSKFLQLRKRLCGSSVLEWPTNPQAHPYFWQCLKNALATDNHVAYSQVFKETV
The experiment can be described thus: TLR7 inhibition reporter assay (HEK-Blue cells, SEAP reporter, gardiquimod stimulation). To be noted: HEK-Blue cells overexpressing human TLR7, SEAP reporter, gardiquimod 7.5 μM; read-out: TLR7 IC50. An outline of the steps:
(§1)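 Agonists used: gardiquimod 7.5 μM (TLR7), R848 15.9 μM (TLR8), ODN2006 5 nM (TLR9), added after 30 min room-temperature compound pre-treatment (0.05 nM–50 μM) of receptor-overexpressing HEK-Blue cells. SEAP reporter (NF-κB/AP-1 driven) read after 22 h at 37 °C; inhibition scaled between agonist+DMSO and reference-inhibitor wells.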

In a further experiment the target is T2, human TLR8 (Homo sapiens, UniProt Q9NR97).
T2 construct: host or cells: HEK-Blue cells
T2 sequence (Q9NR97 27-1041): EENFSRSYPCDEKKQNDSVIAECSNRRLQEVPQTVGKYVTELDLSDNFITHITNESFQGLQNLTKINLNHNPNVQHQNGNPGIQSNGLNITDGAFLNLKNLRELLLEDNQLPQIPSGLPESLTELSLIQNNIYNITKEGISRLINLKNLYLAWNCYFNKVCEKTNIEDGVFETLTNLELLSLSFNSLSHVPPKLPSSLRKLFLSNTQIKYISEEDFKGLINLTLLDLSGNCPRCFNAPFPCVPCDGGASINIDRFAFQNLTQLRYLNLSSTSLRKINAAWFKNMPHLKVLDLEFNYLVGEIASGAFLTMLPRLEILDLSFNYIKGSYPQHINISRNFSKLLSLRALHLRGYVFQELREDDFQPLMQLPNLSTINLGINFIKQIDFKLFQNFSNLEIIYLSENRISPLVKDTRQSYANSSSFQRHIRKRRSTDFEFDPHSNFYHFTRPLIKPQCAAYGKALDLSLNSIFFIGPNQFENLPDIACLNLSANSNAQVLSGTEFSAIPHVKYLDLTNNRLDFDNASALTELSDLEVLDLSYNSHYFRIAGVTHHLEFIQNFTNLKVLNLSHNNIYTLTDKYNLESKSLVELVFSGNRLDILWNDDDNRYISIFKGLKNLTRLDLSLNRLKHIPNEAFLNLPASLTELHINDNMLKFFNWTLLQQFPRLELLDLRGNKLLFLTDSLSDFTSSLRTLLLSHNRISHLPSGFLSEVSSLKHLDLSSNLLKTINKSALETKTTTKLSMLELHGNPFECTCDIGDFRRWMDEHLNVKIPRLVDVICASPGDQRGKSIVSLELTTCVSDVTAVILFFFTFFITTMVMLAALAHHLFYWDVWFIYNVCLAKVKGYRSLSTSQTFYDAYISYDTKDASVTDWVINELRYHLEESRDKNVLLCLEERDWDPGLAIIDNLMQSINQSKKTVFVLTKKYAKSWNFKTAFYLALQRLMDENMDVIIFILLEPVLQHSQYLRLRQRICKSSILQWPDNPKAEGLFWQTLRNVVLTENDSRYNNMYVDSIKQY
The experiment can be described thus: TLR8 inhibition reporter assay (HEK-Blue cells, SEAP reporter, R848 stimulation). To be noted: HEK-Blue cells overexpressing human TLR8, SEAP reporter, R848 15.9 μM; read-out: TLR8 IC50. Summed up: as §1
In general terms: In a reporter assay the amount or activity of a reporter protein is the signal.

The next experiment has as its target T3, human TLR9 (Homo sapiens, UniProt Q9NR96).
T3 construct: host or cells: HEK-Blue cells
T3 sequence (Q9NR96 26-1032): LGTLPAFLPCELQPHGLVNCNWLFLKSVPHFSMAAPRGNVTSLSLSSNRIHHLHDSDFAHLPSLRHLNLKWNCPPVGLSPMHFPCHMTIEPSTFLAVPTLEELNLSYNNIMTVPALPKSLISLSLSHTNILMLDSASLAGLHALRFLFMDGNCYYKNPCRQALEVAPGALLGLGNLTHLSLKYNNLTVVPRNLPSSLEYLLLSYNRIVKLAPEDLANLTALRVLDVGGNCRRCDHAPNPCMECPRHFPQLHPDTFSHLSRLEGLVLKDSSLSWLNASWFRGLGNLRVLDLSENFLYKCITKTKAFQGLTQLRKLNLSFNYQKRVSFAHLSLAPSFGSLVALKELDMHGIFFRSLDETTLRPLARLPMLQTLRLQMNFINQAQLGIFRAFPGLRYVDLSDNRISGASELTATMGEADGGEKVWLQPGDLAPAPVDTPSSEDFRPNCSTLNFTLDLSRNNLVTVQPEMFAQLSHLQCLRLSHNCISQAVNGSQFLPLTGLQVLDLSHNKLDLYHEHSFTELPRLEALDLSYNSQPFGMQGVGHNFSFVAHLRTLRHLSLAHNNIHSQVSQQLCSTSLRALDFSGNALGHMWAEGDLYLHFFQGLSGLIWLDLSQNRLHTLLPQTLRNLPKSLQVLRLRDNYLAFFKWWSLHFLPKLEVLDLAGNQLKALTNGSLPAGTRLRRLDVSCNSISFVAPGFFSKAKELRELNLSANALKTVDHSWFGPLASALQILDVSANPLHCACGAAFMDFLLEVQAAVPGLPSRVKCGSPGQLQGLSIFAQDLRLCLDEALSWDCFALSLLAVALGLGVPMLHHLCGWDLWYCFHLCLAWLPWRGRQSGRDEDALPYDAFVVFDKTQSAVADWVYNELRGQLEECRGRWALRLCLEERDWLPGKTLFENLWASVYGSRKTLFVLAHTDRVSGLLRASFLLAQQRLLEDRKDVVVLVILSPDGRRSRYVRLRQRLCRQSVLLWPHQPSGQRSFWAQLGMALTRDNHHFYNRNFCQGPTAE
Nature of the experiment: TLR9 inhibition reporter assay (HEK-Blue cells, SEAP reporter, ODN2006 stimulation). To be noted: HEK-Blue cells overexpressing human TLR9, SEAP reporter, ODN2006 5 nM. An outline of the steps: as §1

For `COC1CN(C2CCC(c3nc4c(C(C)C)c(-c5cn6ncnc6cc5C)[nH]c4s3)CC2)C1` (single isomer, unassigned) [Example 150, 6-isopropyl-2-(4-(3-methoxyazetidin-1-yl)cyclohexyl)-5-(7-methyl-[1,2,4]triazolo[1,5-a]pyridin-6-yl)-4H-pyrrolo[3,2-d]thiazole], the 50% inhibitory concentration (IC50) on human TLR7 was determined as 0.57 nM; on human TLR8, 0.39 nM; against human TLR9 it was 2830 nM.

Turning to `COC1CN(C2CCC(c3nc4c(C(C)C)c(-c5cn6ncnc6cc5C)[nH]c4s3)CC2)C1` (single isomer, unassigned) [Example 151, 6-isopropyl-2-(4-(3-methoxyazetidin-1-yl)cyclohexyl)-5-(7-methyl-[1,2,4]triazolo[1,5-a]pyridin-6-yl)-4H-pyrrolo[3,2-d]thiazole], the concentration for half-maximal inhibition (IC50) on human TLR7 amounted to 49.2 nM; on human TLR8, 60 nM; on human TLR9, 23400 nM.

On to `Cc1cc2ncnn2cc1-c1[nH]c2sc(C3CCC(NC4COC4)CC3)nc2c1C(C)C` (single isomer, unassigned) [Example 152, N-(4-(6-isopropyl-5-(7-methyl-[1,2,4]triazolo[1,5-a]pyridin-6-yl)-4H-pyrrolo[3,2-d]thiazol-2-yl)cyclohexyl)oxetan-3-amine], for which the IC50 is 13.7 nM on human TLR7, 31.6 nM on human TLR8 and 20900 nM on human TLR9.

With `Cc1cc2ncnn2cc1-c1[nH]c2sc(C3CCC(NC4COC4)CC3)nc2c1C(C)C` (single isomer, unassigned) [Example 153, N-(4-(6-isopropyl-5-(7-methyl-[1,2,4]triazolo[1,5-a]pyridin-6-yl)-4H-pyrrolo[3,2-d]thiazol-2-yl)cyclohexyl)oxetan-3-amine], the half-inhibitory concentration (IC50) on human TLR7 was determined as 27.8 nM; on human TLR8 it was 6.62 nM; against human TLR9, 22300 nM.

Regarding `Cc1cc2ncnn2cc1-c1[nH]c2sc(C3CCC(N4CCCC4)CC3)nc2c1C(C)C` (single isomer, unassigned) [Example 154, 6-isopropyl-5-(7-methyl-[1,2,4]triazolo[1,5-a]pyridin-6-yl)-2-(4-(pyrrolidin-1-yl)cyclohexyl)-4H-pyrrolo[3,2-d]thiazole], the results for the concentration for half-maximal inhibition (IC50) on human TLR7, on human TLR8 and against human TLR9 were 11.9 nM, 3.33 nM and 9310 nM, respectively.

As for `Cc1cc2ncnn2cc1-c1[nH]c2sc(C3CCC(N4CCCC4)CC3)nc2c1C(C)C` (single isomer, unassigned) [Example 155, 6-isopropyl-5-(7-methyl-[1,2,4]triazolo[1,5-a]pyridin-6-yl)-2-(4-(pyrrolidin-1-yl)cyclohexyl)-4H-pyrrolo[3,2-d]thiazole], the 50% inhibitory concentration (IC50) on human TLR7 was 41.5 nM; at human TLR8 it was 21.5 nM; on human TLR9, above 50000 nM.

Consider `Cc1cc2ncnn2cc1-c1[nH]c2sc(C3CCC(NCC(C)(C)O)CC3)nc2c1C(C)C` (single isomer, unassigned) [Example 156, 1-((4-(6-isopropyl-5-(7-methyl-[1,2,4]triazolo[1,5-a]pyridin-6-yl)-4H-pyrrolo[3,2-d]thiazol-2-yl)cyclohexyl)amino)-2-methylpropan-2-ol], for which the figures for the IC50 at human TLR7, on human TLR8 and at human TLR9 were 1.72 nM, 0.09 nM and 10900 nM, respectively.

Regarding `Cc1cc2ncnn2cc1-c1[nH]c2sc(C3CCC(NCC(C)(C)O)CC3)nc2c1C(C)C` (single isomer, unassigned) [Example 157, 1-((4-(6-isopropyl-5-(7-methyl-[1,2,4]triazolo[1,5-a]pyridin-6-yl)-4H-pyrrolo[3,2-d]thiazol-2-yl)cyclohexyl)amino)-2-methylpropan-2-ol], the results for the IC50 on human TLR7, at human TLR8 and on human TLR9 were 37.4 nM, 11.9 nM and 16400 nM, respectively.

With `Cc1cc2ncnn2cc1-c1[nH]c2sc(C3CCC(N(C)C(C)C)CC3)nc2c1C(C)C` (single isomer, unassigned) [Example 158, N-isopropyl-4-(6-isopropyl-5-(7-methyl-[1,2,4]triazolo[1,5-a]pyridin-6-yl)-4H-pyrrolo[3,2-d]thiazol-2-yl)-N-methylcyclohexan-1-amine], the IC50 worked out at 8.95 nM at human TLR7, 31 nM on human TLR8 and 14300 nM against human TLR9.

`Cc1cc2ncnn2cc1-c1[nH]c2sc(C3CCC(N(C)C(C)C)CC3)nc2c1C(C)C` (single isomer, unassigned) [Example 159, N-isopropyl-4-(6-isopropyl-5-(7-methyl-[1,2,4]triazolo[1,5-a]pyridin-6-yl)-4H-pyrrolo[3,2-d]thiazol-2-yl)-N-methylcyclohexan-1-amine]: the IC50 is 8.79 nM at human TLR7, 4.78 nM on human TLR8 and 6870 nM against human TLR9.

On to `Cc1cc2ncnn2cc1-c1[nH]c2sc(C3CCC(NC4CCOCC4)CC3)nc2c1C(C)C` (single isomer, unassigned) [Example 160, N-(4-(6-isopropyl-5-(7-methyl-[1,2,4]triazolo[1,5-a]pyridin-6-yl)-4H-pyrrolo[3,2-d]thiazol-2-yl)cyclohexyl) tetrahydro-2H-pyran-4-amine], for which the 50% inhibitory concentration (IC50) was determined as 0.61 nM at human TLR7, 0.06 nM at human TLR8 and 5300 nM against human TLR9.

Broadly, the IC50 is the concentration that inhibits the measured activity by half.
